Test results: patent publication US11498899B2, “Nitrone herbicides” (FMC Corporation, priority 2016, dated 2022)

Experiments:
[1] = test system: barnyardgrass (Echinochloa crus-galli); test: Test A preemergence, visual injury rating 0-100 (0 no effect, 100 complete control); format: in vivo
[2] = test system: foxtail, giant (giant foxtail, Setaria faberii); test: Test A preemergence, visual injury rating 0-100; format: in vivo
[3] = test system: kochia (Kochia scoparia); test: Test A preemergence, visual injury rating 0-100; format: in vivo
[4] = test system: pigweed (Amaranthus retroflexus); test: Test A preemergence, visual injury rating 0-100; format: in vivo
[5] = test system: ragweed (common ragweed, Ambrosia elatior); test: Test A preemergence, visual injury rating 0-100; format: in vivo
[6] = test system: ryegrass, Italian (Italian ryegrass, Lolium multiflorum); test: Test A preemergence, visual injury rating 0-100; format: in vivo; settings: 500 g ai/ha
[7] = test system: barnyardgrass (Echinochloa crus-galli); test: Test A postemergence, visual injury rating 0-100; format: in vivo; settings: 0 to 100 scale
[8] = test system: blackgrass (Alopecurus myosuroides); test: Test A postemergence, visual injury rating 0-100; format: in vivo; settings: 0 to 100 scale
[9] = test system: corn (Zea mays); test: Test A postemergence, visual injury rating 0-100; format: in vivo; settings: 0 to 100 scale
[10] = test system: foxtail, giant (giant foxtail, Setaria faberii); test: Test A postemergence, visual injury rating 0-100; format: in vivo; settings: 0 to 100 scale
[11] = test system: galium (catchweed bedstraw, Galium aparine); test: Test A postemergence, visual injury rating 0-100; format: in vivo; settings: 0 to 100 scale
[12] = test system: kochia (Kochia scoparia); test: Test A postemergence, visual injury rating 0-100; format: in vivo; settings: 0 to 100 scale
[13] = test system: pigweed (Amaranthus retroflexus); test: Test A postemergence, visual injury rating 0-100; format: in vivo; settings: 0 to 100 scale
[14] = test system: ragweed (common ragweed, Ambrosia elatior); test: Test A postemergence, visual injury rating 0-100; format: in vivo; settings: 0 to 100 scale
[15] = test system: ryegrass, Italian (Italian ryegrass, Lolium multiflorum); test: Test A postemergence, visual injury rating 0-100; format: in vivo; settings: 0 to 100 scale
[16] = test system: wheat (Triticum aestivum); test: Test A postemergence, visual injury rating 0-100; format: in vivo; settings: 0 to 100 scale
[17] = test system: ducksalad (Heteranthera limosa); test: Test B flooded paddy test, visual rating 0-100; settings: Flood, 250 g ai/ha, applied to paddy water, rated after 13 to 15 days
[18] = test system: barnyardgrass (Echinochloa crus-galli); test: Test B flooded paddy test, visual rating 0-100; settings: Flood, 250 g ai/ha, applied to paddy water, rated after 13 to 15 days
[19] = test system: rice (Oryza sativa); test: Test B flooded paddy test, visual rating 0-100 (0 no effect, 100 complete control); settings: Flood, 250 g ai/ha, applied to paddy water, rated after 13 to 15 days

SMILES | Barnyardgrass plant response rating (0 to 100 scale) ([1]; 125 g ai/ha) | Barnyardgrass plant response rating (0 to 100 scale) ([1]; 500 g ai/ha) | Foxtail, Giant plant response rating (0 to 100 scale) ([2]; 125 g ai/ha) | Foxtail, Giant plant response rating (0 to 100 scale) ([2]; 500 g ai/ha) | Kochia plant response rating (0 to 100 scale) ([3]; 125 g ai/ha) | Kochia plant response rating (0 to 100 scale) ([3]; 500 g ai/ha) | Pigweed plant response rating (0 to 100 scale) ([4]; 125 g ai/ha) | Pigweed plant response rating (0 to 100 scale) ([4]; 500 g ai/ha) | Ragweed plant response rating (0 to 100 scale) ([5]; 125 g ai/ha) | Ragweed plant response rating (0 to 100 scale) ([5]; 500 g ai/ha) | Ryegrass, Italian plant response rating (0 to 100 scale) [6] | Barnyardgrass plant response rating ([7]; 125 g ai/ha) | Barnyardgrass plant response rating ([7]; 500 g ai/ha) | Blackgrass plant response rating ([8]; 125 g ai/ha) | Blackgrass plant response rating ([8]; 500 g ai/ha) | Corn plant response rating ([9]; 125 g ai/ha) | Corn plant response rating ([9]; 500 g ai/ha) | Foxtail, Giant plant response rating ([10]; 125 g ai/ha) | Foxtail, Giant plant response rating ([10]; 500 g ai/ha) | Galium plant response rating ([11]; 125 g ai/ha) | also measured
CC1=[N+]([O-])C(C(=O)Nc2cccc(F)c2F)C(c2ccc(Cl)c(C(F)(F)F)c2)C1 (racemic) [Compound 104] | 80 | 90 | 90 | 90 | 30 | 70 | 10 | 80 | 20 | 60 | 90 | 60 | 80 | 70 | 70 | 70 | 60 | 20 | 80 | 30 | Galium plant response rating ([11]; 500 g ai/ha): 70; Kochia plant response rating ([12]; 125 g ai/ha): 50; Kochia plant response rating ([12]; 500 g ai/ha): 70; Pigweed plant response rating ([13]; 125 g ai/ha): 30; Pigweed plant response rating ([13]; 500 g ai/ha): 70; Ragweed plant response rating ([14]; 125 g ai/ha): 20; Ragweed plant response rating ([14]; 500 g ai/ha): 70; Ryegrass, Italian plant response rating ([15]; 125 g ai/ha): 20; Ryegrass, Italian plant response rating ([15]; 500 g ai/ha): 70; Wheat plant response rating ([16]; 125 g ai/ha): 10; Wheat plant response rating ([16]; 500 g ai/ha): 50; Ducksalad plant response rating (0 to 100 scale) [17]: 40; Barnyardgrass plant response rating (0 to 100 scale) [18]: 40; Rice plant response rating (0 to 100 scale) [19]: 0
CC1=[N+]([O-])C(C(=O)Nc2cccc(F)c2F)C(c2cccc(C3OCCO3)c2)C1 (racemic) [Compound 105] | 30 | 90 | 60 | 90 | 0 | 60 | 0 | 0 | 0 | 0 | 80 | 30 | 80 | 20 | 60 | 0 | 40 | 10 | 30 | 30 | Galium plant response rating ([11]; 500 g ai/ha): 40; Kochia plant response rating ([12]; 125 g ai/ha): 0; Kochia plant response rating ([12]; 500 g ai/ha): 0; Pigweed plant response rating ([13]; 125 g ai/ha): 0; Pigweed plant response rating ([13]; 500 g ai/ha): 0; Ragweed plant response rating ([14]; 125 g ai/ha): 0; Ragweed plant response rating ([14]; 500 g ai/ha): 40; Ryegrass, Italian plant response rating ([15]; 125 g ai/ha): 0; Ryegrass, Italian plant response rating ([15]; 500 g ai/ha): 40; Wheat plant response rating ([16]; 125 g ai/ha): 0; Wheat plant response rating ([16]; 500 g ai/ha): 30; Ducksalad plant response rating (0 to 100 scale) [17]: 0; Barnyardgrass plant response rating (0 to 100 scale) [18]: 0; Rice plant response rating (0 to 100 scale) [19]: 0
CC1=[N+]([O-])C(C(=O)Nc2cccc(F)c2F)C(c2cccc(C(F)(F)F)c2C)C1 (racemic) [Compound 106] | 90 | 90 | 90 | 100 | 0 | 70 | 0 | 60 | 0 | 40 | 90 | 70 | 90 | 80 | 70 | 60 | 90 | 80 | 90 | 40 | Galium plant response rating ([11]; 500 g ai/ha): 70; Kochia plant response rating ([12]; 125 g ai/ha): 0; Kochia plant response rating ([12]; 500 g ai/ha): 30; Pigweed plant response rating ([13]; 125 g ai/ha): 0; Pigweed plant response rating ([13]; 500 g ai/ha): 20; Ragweed plant response rating ([14]; 125 g ai/ha): 30; Ragweed plant response rating ([14]; 500 g ai/ha): 70; Ryegrass, Italian plant response rating ([15]; 125 g ai/ha): 70; Ryegrass, Italian plant response rating ([15]; 500 g ai/ha): 70; Wheat plant response rating ([16]; 125 g ai/ha): 40; Wheat plant response rating ([16]; 500 g ai/ha): 70; Ducksalad plant response rating (0 to 100 scale) [17]: 70; Barnyardgrass plant response rating (0 to 100 scale) [18]: 60; Rice plant response rating (0 to 100 scale) [19]: 0
CC1=[N+]([O-])C(C(=O)Nc2cccc(F)c2F)C(c2ccc(Cl)c(F)c2)C1 (racemic) [Compound 107] | 90 | 90 | 90 | 90 | 0 | 90 | 0 | 80 | 0 | 50 | 80 | 70 | 90 | 70 | 70 | 30 | 80 | 60 | 90 | 70 | Galium plant response rating ([11]; 500 g ai/ha): 70; Kochia plant response rating ([12]; 125 g ai/ha): 20; Kochia plant response rating ([12]; 500 g ai/ha): 20; Pigweed plant response rating ([13]; 125 g ai/ha): 0; Pigweed plant response rating ([13]; 500 g ai/ha): 30; Ragweed plant response rating ([14]; 125 g ai/ha): 30; Ragweed plant response rating ([14]; 500 g ai/ha): 60; Ryegrass, Italian plant response rating ([15]; 125 g ai/ha): 10; Ryegrass, Italian plant response rating ([15]; 500 g ai/ha): 70; Wheat plant response rating ([16]; 125 g ai/ha): 10; Wheat plant response rating ([16]; 500 g ai/ha): 60; Ducksalad plant response rating (0 to 100 scale) [17]: 70; Barnyardgrass plant response rating (0 to 100 scale) [18]: 40; Rice plant response rating (0 to 100 scale) [19]: 0
CC1=[N+]([O-])C(C(=O)Nc2cccc(F)c2F)C(c2cc(C)cc(CF)c2)C1 (racemic) [Compound 108] | 90 | 100 | 90 | 100 | 20 | 90 | 0 | 70 | 0 | 70 | 90 | 70 | 80 | 90 | 90 | 60 | 90 | 70 | 90 | 50 | Galium plant response rating ([11]; 500 g ai/ha): 70; Kochia plant response rating ([12]; 125 g ai/ha): 0; Kochia plant response rating ([12]; 500 g ai/ha): 20; Pigweed plant response rating ([13]; 125 g ai/ha): 0; Pigweed plant response rating ([13]; 500 g ai/ha): 20; Ragweed plant response rating ([14]; 125 g ai/ha): 30; Ragweed plant response rating ([14]; 500 g ai/ha): 50; Ryegrass, Italian plant response rating ([15]; 125 g ai/ha): 40; Ryegrass, Italian plant response rating ([15]; 500 g ai/ha): 70; Wheat plant response rating ([16]; 125 g ai/ha): 30; Wheat plant response rating ([16]; 500 g ai/ha): 70; Ducksalad plant response rating (0 to 100 scale) [17]: 0; Barnyardgrass plant response rating (0 to 100 scale) [18]: 0; Rice plant response rating (0 to 100 scale) [19]: 0
